Test results published in patent publication US7553821B2, “Methods for selectively modulating survivin apoptosis pathways” (Yale University, priority 2000, dated 2009).

System: HeLa cells
Assay: DNA content by propidium iodide staining and flow cytometry in transfected HeLa cells
Type: cell-based
Conditions: gated GFP-expressing cells, 48 h after transfection
Procedure: HeLa cells were transfected with GFP-survivin(T34A) in the presence or in the absence of 20 μM of the caspase inhibitor, Z-VAD-fmk. Gated GFP-expressing cells were analyzed 48 h after transfection for DNA content by propidium iodide staining and flow cytometry. The percentages of apoptotic cells with sub-G1 (hypodiploid) […] DNA content are indicated. Apoptotic HeLa cells in GFP-vector transfectants were 8%. Data are representative of one experiment out of at least three independent determinations.
Transfection experiments. For transient transfection, HeLa cells in C-6 tissue culture plates (Costar, Cambridge, Mass.) at ˜60-70% confluency, were incubated in 1 ml of serum-free OptiMEM medium (Life Technologies, Gaithersburg, Md.) for 20 min, and transfected with 2.5 μg of the various plasmid cDNAs plus 9 μl Lipofectamine (Life Technologies). After a 5 h incubation at 37° C., the mixture was aspirated and substituted with complete growth medium for 48-72 h. To generate stable YUSAC-2 transfectants, a survivin(T34A) cDNA was inserted into the HindIII-SpeI sites of the pTet-splice vector (Dr. D. Schatz, Yale University School of Medicine), downstream of the regulatory sequences of the Tet-resistance operon (TetO). […] Gated GFP-expressing cells were analyzed for DNA content by flow cytometry on a FACSort (Becton Dickinson, San Jose, Calif.) using a Cell Quest software. […]

survivin(T34A): dominant-negative, non-phosphorylatable survivin mutant with Thr34→Ala substitution, expressed from transfected cDNA (also HA- or GFP-tagged)
hypodiploid (sub-G1) DNA content: resulted in the appearance of HeLa cells with hypodiploid (sub-G1) DNA content
